Measured values as given in publication PMC7215935, “GM1 Oligosaccharide Crosses the Human Blood–Brain Barrier In Vitro by a Paracellular Route” (International Journal of Molecular Sciences, 2020).

What was measured:
N2a cells = experiment: N2a differentiation by hBLEC-crossed OligoGM1 (morphology); assay type: cell-based, mouse; details: basolateral solution (~25 μM), 24 h
Description: For differentiation experiments, N2a cells were seeded at 5 × 10^3/cm^2 and incubated for 24 h in regular culture condition to allow cell attachment. Before all treatments, growth medium was removed and cells were adapted for 30 min in pre-warmed (37 °C) Transfectagro medium containing 2% heat-inactivated FBS, 1% L-glutamine, and 1% penicillin/streptomycin solution. All treatments were conducted at 37 °C in a humidified atmosphere of 95% air/5% CO2.
Precisely, [^3H]OligoGM1 (1 × 10^6 dpm) diluted into cold OligoGM1 solution (300 µM) was administered for 240 min to hBLECs in the upper compartment so that at a volume of 0.5 mL there was 150 nmol of OligoGM1. […] After the 240 min incubation period, the basolateral solution was screened to find the quantity of crossed OligoGM1 by measuring ^3H-radioactivity and was then administered to N2a cells for 24 h. […] Morphological signals of neurodifferentiation were evaluated by cell observation and TrkA-ERK1/2 pathway activation was verified by immunoblotting (for procedural details see Supplementary Materials and [22, 23]). […]
(§1) Since mycoplasma could infect of Caco-2 cells, we validated the absence of any contamination by two methods (data not shown). […] Briefly culture supernatants were mixed with MycoAlert reagents according to manufacturer instruction and the luminescence was measured after 10 min using fluorimeter (BioTek, H1, Vermont, Winooski). […]

TrkA-ERK1/2 pathway = TrkA-ERK1/2 pathway activation in N2a cells (immunoblotting); assay type: cell-based, mouse; details: basolateral solution
Description: Precisely, [^3H]OligoGM1 (1 × 10^6 dpm) diluted into cold OligoGM1 solution (300 µM) was administered for 240 min to hBLECs in the upper compartment so that at a volume of 0.5 mL there was 150 nmol of OligoGM1. […] After the 240 min incubation period, the basolateral solution was screened to find the quantity of crossed OligoGM1 by measuring ^3H-radioactivity and was then administered to N2a cells for 24 h. For control cells, we administered a basolateral solution derived from hBLECs incubated with Transfectagro without OligoGM1. Morphological signals of neurodifferentiation were evaluated by cell observation and TrkA-ERK1/2 pathway activation was verified by immunoblotting (for procedural details see Supplementary Materials and [22, 23]).
Caco-2 cells are not listed as commonly misidentified cell line by the International Cell Line Authentication Committee. However it is reported that culture condition and cell origin can deeply affect Caco-2 morphology and behavior [4-6]. […]
as §1
It is calculated according to the equation (1): […]

hBLECs = experiment: Metabolic integrity of OligoGM1 after hBLEC transport (HPTLC autoradiography); assay type: in vitro ADME, human; details: basolateral compartment, detection limit 15 dpm
From the text: Since OligoGM1 is tritium labeled at position 6 of the external galactose, any possible galactosidase activity present on the plasma membrane of hBLECs can result in external galactose removal, leading to loss of radioactivity from the penta-saccharide. Radiolabeled galactose may pass the BBB or may enter into the cells and be recycled for the biosynthesis of new glycans, so that the radioactivity found may correspond to the galactose or to any possible new glycan rather than to the original oligosaccharide.
Thus, to test the integrity of the OligoGM1 molecule after hBLEC crossing, OligoGM1 solution was prepared in RH buffer at a final concentration of 100 μM plus 1 × 10^6 dpm of tritium-labeled OligoGM1. For the apical–basolateral transport experiment, the hBLEC insert’s apical side was filled with 0.5 mL of the drug solution and placed on 1.5 mL RH buffer-filled well of a 12-well plate. After 60 min, the solution of the receiving compartment (about 1.5 mL) was collected and 200 μL were combined with 5 mL of ULTIMA GOLD liquid (PerkinElmer), shaken, and counted for 20 min by a liquid scintillation analyzer (TRI-CARB 2100TR, Packard).
To verify that the counted radioactivity indeed corresponded to [^3H]OligoGM1, 0.5 mL of receiving compartment solution was lyophilized and suspended in 0.5 mL of methanol. […]

SMILES: CC(=O)NC1C(O)CC(OC2C(O)C(OC3C(CO)OC(O)C(O)C3O)OC(CO)C2OC2OC(CO)C(O)C(OC3OC(CO)C(O)C(O)C3O)C2NC(C)=O)(C(=O)O)OC1C(O)C(O)CO (stereo not drawn) [OligoGM1, β-Gal-(1-3)-β-GalNAc-(1-4)-[α-Neu5Ac-(2-3)]-β-Gal-(1-4)-β-Glc]
- N2a cell morphology / neurite sprouting (N2a cells): induced a neuron-like morphology
- TrkA-ERK1/2 pathway (pTrkA, pERK1/2) (TrkA-ERK1/2 pathway): activation of the TrkA-ERK1/2 pathway
- metabolic stability after hBLEC crossing (hBLECs): not metabolized by hBLECs
